Test results reported in patent publication US10173968B2, “Bishydrazone-based antifungal agents” (University of Kentucky Research Foundation, priority 2016, dated 2019).
Where two headings read alike, the source gives them in different places.

What was measured:
C. albicans ATCC 10231 [1] = type: cell-based, Candida albicans
VRE = experiment: Antibacterial MIC, double-dilution method; type: cell-based; conditions: Enterococcus, strain D, Gram-positive, converted from μM, read-out: MIC
Method in brief: (§1)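 Step one: single-point test of each compound at 500 μM. Step two: MIC determination across doubling dilutions.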

[2] = test system: L. monocytogenes ATCC 19115; experiment: Antibacterial MIC, double-dilution method; type: cell-based; conditions: Listeria monocytogenes, ATCC19115, strain B, Gram-positive, read-out: MIC
Method in brief: as §1

E. coli MC1061 = experiment: Antibacterial MIC, double-dilution method; type: cell-based; conditions: Escherichia coli, strain G, Gram-negative, read-out: MIC
Method in brief: as §1

S. enterica ATCC 14028 = experiment: Antibacterial MIC, double-dilution method; type: cell-based; conditions: Salmonella enterica, ATCC14028, strain J, Gram-negative, read-out: MIC
Method in brief: as §1

MRSA = experiment: Antibacterial MIC, double-dilution method; type: cell-based; conditions: Staphylococcus aureus, strain C, Gram-positive, read-out: MIC
Method in brief: as §1

P. aeruginosa ATCC 27853 = experiment: Antibacterial MIC, double-dilution method; type: cell-based; conditions: Pseudomonas aeruginosa, ATCC27853, strain I, Gram-negative, read-out: MIC
Method in brief: as §1

B. subtilis 168 = experiment: Antibacterial MIC, double-dilution method; type: cell-based; conditions: Bacillus subtilis, strain A, Gram-positive
Method in brief: as §1

K. pneumoniae ATCC 27736 = experiment: Antibacterial MIC, double-dilution method; type: cell-based; conditions: Klebsiella pneumoniae, ATCC27736, strain H, Gram-negative, read-out: MIC
Method in brief: as §1

M. smegmatis MC2-155 = experiment: Antibacterial MIC, double-dilution method; type: cell-based; conditions: Mycolicibacterium smegmatis, MC2155, strain K, mycobacterial; converted from μM; read-out: MIC
Method in brief: as §1

[3] = test system: P. aeruginosa ATCC 27853 (strain I); type: cell-based
Description: (§2) The bacteria were grown in MH broth at 37° C. for these experiments. […] The resulting cultures were diluted 1:1000 and grown until the culture reached ˜300,000 cfu/mL. That culture was then further diluted 1:1000 and used to determine the next round of MIC values.

C. albicans ATCC 64124 = experiment: Antifungal MIC, CLSI M27-A3 microbroth dilution; type: cell-based, Candida albicans; conditions: Candida albicans, ATCC64124; C. albicans ATCC 64124, resistant to FLC, ITC, and VOR; converted from μg/mL; read-out: MIC
Description: (§3) In vitro MIC testing was performed according to the CLSI M27-A3 standard microbroth dilution methodology for the susceptibility testing of yeasts with minor modifications.

C. albicans ATCC 10231 [4] = experiment: Antifungal MIC, CLSI M27-A3 microbroth dilution; type: cell-based, Candida albicans; conditions: Candida albicans, ATCC10231, C. albicans ATCC 10231, resistant to FLC, ITC, and VOR, read-out: MIC
Description: as §3

C. albicans ATCC 2310 = experiment: Antifungal MIC, CLSI M27-A3 microbroth dilution; type: cell-based, Candida albicans; conditions: Candida albicans, ATCC2310; C. albicans ATCC 2310, susceptible to FLC, ITC, and VOR; converted from μg/mL; read-out: MIC
Description: as §3

C. albicans ATCC 90819 = experiment: Antifungal MIC, CLSI M27-A3 microbroth dilution; type: cell-based, Candida albicans; conditions: Candida albicans, ATCC90819; C. albicans ATCC 90819, resistant to FLC, ITC, and VOR; converted from μg/mL; read-out: MIC
Description: as §3

C. albicans ATCC 2876 = experiment: Antifungal MIC, CLSI M27-A3 microbroth dilution; type: cell-based, Candida albicans; conditions: Candida albicans, ATCC2876; C. albicans ATCC 2876, susceptible to FLC, ITC, and VOR; converted from μg/mL; read-out: MIC
Description: as §3

C. albicans ATCC 1237 = experiment: Antifungal MIC, CLSI M27-A3 microbroth dilution; type: cell-based, Candida albicans; conditions: Candida albicans, ATCC1237, C. albicans ATCC 1237, resistant to FLC, ITC, and VOR; converted from μg/mL; read-out: MIC
Description: as §3

C. albicans ATCC 1003 = experiment: Antifungal MIC, CLSI M27-A3 microbroth dilution; type: cell-based, Candida albicans; conditions: Candida albicans, ATCC1003; C. albicans ATCC 1003; converted from μg/mL; read-out: MIC
Description: as §3

VRE (strain D) = type: cell-based, enterococcus
Description: as §2

[5] = test system: C. albicans strains (panel of seven); experiment: Antifungal MIC, summary over the panel; type: cell-based, Candida albicans
Description: In vitro MIC testing was performed according to the CLSI M27-A3 standard microbroth dilution methodology for the susceptibility testing of yeasts with minor modifications. […] MIC values were read visually for all tested compounds, and the endpoint was determined as the minimum concentration of compound that yielded complete inhibition relative to growth control.

MRSA (strain C) = type: cell-based, Staphylococcus aureus
Description: as §2

[6] = test system: L. monocytogenes ATCC 19115 (strain B); type: cell-based, Listeria monocytogenes
Description: as §2

C. albicans ATCC 10231 [7] = experiment: Intracellular ROS production, DCFH-DA fluorescence assay; type: cell-based, Candida albicans; conditions: at 1× and 2× MIC values, 1 h at 35° C.
Source text: We used the 2′,7′-dichlorodihydrofluorescein diacetate (DCFH-DA) dye as a probe to measure the production of ROS in yeast cells upon treatment with our compounds. DCFH-DA can easily cross the cell membranes and be hydrolyzed by cellular esterases to the non-fluorescent 2′,7′-dichlorodihydrofluorescein (DCFH), which can further be oxidized to the highly fluorescent 2′,7′-dichlorofluorescein (DCF) by the intracellular ROS. Five mL of RPMI 1640 medium were inoculated using a single colony of C. albicans ATCC 10231 (strain A) in a Falcon tube and grown overnight at 35° C. at 200 rpm. The overnight culture was diluted by adding 200 μL of yeast cells to 800 μL of the same medium. […] H2O2 at 1 mM was also used as a positive control. Cells were centrifuged and washed twice with PBS buffer (pH 7.2). Cells were resuspended in the same buffer and incubated with DCFH-DA (20 μg/mL) for 30 min in the dark. Afterwards, cells were centrifuged and washed with PBS buffer to remove excess DCFH-DA. Glass slides with 10-15 μL of each mixture were prepared and observed in bright field and fluorescence modes (FITC filter set, excitation and emission wavelengths of 488 and 512 nm, respectively) using a Zeiss Axovert 200M fluorescence microscope (FIG. 3).

[8] = after 15 serial passages at sub-inhibitory concentrations

C/C(=N\NC(=N)N)c1ccc2c(c1)Cc1cc(/C(C)=N/NC(=N)N)ccc1-2.Cl.Cl [Compound 4F, (2E,2′E)-2,2′-((9H-Fluorene-2,7-diyl)bis(ethan-1-yl-1-ylidene))bis(hydrazine-1-carboximidamide) dihydrochloride]
shift in relative MIC values (C. albicans ATCC 10231 [1]; after 13 passages, sub-MIC drug concentrations): 2 fold
development of drug resistance (C. albicans ATCC 10231 [1]; repeated treatments with sub-MIC drug concentrations): unable to develop drug resistance
MIC (VRE): 0.4 µg/mL
MIC ([2]; converted from μM): < 0.2 µg/mL
MIC ([2]; range 0.5 to 500 μM): < 0.5 µM
MIC (E. coli MC1061; converted from μM): 218 µg/mL
MIC (E. coli MC1061; range 0.5 to 500 μM): 500 µM
MIC (S. enterica ATCC 14028; converted from μM): 1.7 µg/mL
MIC (S. enterica ATCC 14028; range 0.5 to 500 μM): 3.9 µM
MIC (MRSA; converted from μM): 0.4 to 0.9 µg/mL
MIC (MRSA; range 0.5 to 500 μM): 1 to 2 µM
MIC (P. aeruginosa ATCC 27853; converted from μM): 0.4 to 0.9 µg/mL
MIC (P. aeruginosa ATCC 27853; range 0.5 to 500 μM): 1 to 2 µM
MIC (B. subtilis 168; converted from μM): 3.4 µg/mL
MIC (B. subtilis 168; range 0.5 to 500 μM): 7.8 µM
MIC (K. pneumoniae ATCC 27736; converted from μM): 13.6 to 27.2 µg/mL
MIC (K. pneumoniae ATCC 27736; range 0.5 to 500 μM): 31.3 to 62.5 µM
MIC (M. smegmatis MC2-155): 0.4 µg/mL
increase in relative MIC values [3, 8]: one-fold
development of resistance (passages after which resistance developed) ([3]; up to 15 passages): did not develop resistance
MIC (C. albicans ATCC 64124): 2.3 µM
MIC (C. albicans ATCC 10231 [4]; converted from μg/mL): 2.3 to 4.6 µM
MIC (C. albicans ATCC 10231 [4]): 1 to 2 µg/mL
MIC (C. albicans ATCC 2310): 2.3 µM
MIC (C. albicans ATCC 90819): 4.6 µM
MIC (C. albicans ATCC 2876): 2.3 µM
MIC (C. albicans ATCC 1237): 4.6 µM
MIC (C. albicans ATCC 1003): 2.3 µM
increase in relative MIC values (VRE (strain D); [8]): one-fold
development of resistance (passages after which resistance developed) (VRE (strain D); up to 15 passages): did not develop resistance
MIC ([5]; Candida albicans, all, most or majority of the fungal strains, read-out: MIC, span over C. albicans strains): 1 to 3.9 µg/mL
antifungal activity in words ([5]; against all fungal strains tested): excellent antifungal activities
increase in relative MIC values (MRSA (strain C); [8]): one-fold
development of resistance (passages after which resistance developed) (MRSA (strain C); up to 15 passages): did not develop resistance
increase in relative MIC values [6, 8]: one-fold
development of resistance (passages after which resistance developed) ([6]; up to 15 passages): did not develop resistance
intracellular ROS production (C. albicans ATCC 10231 [7]): significantly increased intracellular ROS production
